# Assay results published in patent US20250000907A1, “ENGINEERED IMMUNE CELLS WITH REDUCED SIRT6 EXPRESSION” (H. LEE MOFFITT CANCER CENTER AND RESEARCH INSTITUTE, INC., priority 2021, published 2025).
# Tests used:
# [1] = tested on: human TILs from NSCLC patient tumor samples; assay: IFN-γ ELISPOT assay of human NSCLC TILs; assay type: cell-based; conditions: TILs from 6 NSCLC patients, OSS vs. DMSO
# Protocol: (§1) hTILs were maintained in RPMI 1640 Medium, supplemented with 10% human AB serum (Valley Biomedical, Inc.), 1 mM Hepes (Sigma-Aldrich), 1% P/S (Thomas Scientific Inc), 50 μg/ml Gentamicin (ThermoFisher Scientific), 50μM β-mercaptoethanol (ThermoFisher Scientific) and 6000 U/ml of recombinant human IL-2 (Peprotech). For metabolic and functional assays, hTILs were cultured in completed RPMI medium, IL-2 free, on plate-bound anti-CD3 antibody (5 μg/ml; OKT-3, BioXCell) in the presence of vehicle or OSS (Selleck Chemicals) at the indicated concentrations.
# (§2) The number of IFN-γ producing cells was evaluated in an ELISPOT assay. Briefly, mouse TILs were plated at 1×10^5 cells and co-cultured with 1×10^3 irradiated B16F10 tumor cells (50 Gray) in the presence of the indicated concentrations of OSS, in a 96-well nitrocellulose flat-bottomed plate (ELISPOT plate, Millipore) pre-coated with an anti-mouse IFN-γ antibody (AN-18, Mabtech, Inc.) and incubated for 48 hr at 37° C. […] After washing steps and successive biotinylated anti-IFN-γ antibody (R4-6A2, Mabtech, Inc.) and Streptavidin-HRP (BD Bioscience) labeling, spots were detected using AEC Substrate Kit (BD Biosciences) and counted using an AID ELISPOT Reader System (Autoimmun Diagnostika GmbH).
# [2] = tested on: human TILs from NSCLC patient tumor samples; assay: Seahorse ECAR of human NSCLC TILs; assay type: cell-based; conditions: TILs from 6 NSCLC patients, OSS vs. DMSO
# Protocol: Human tumor infiltrating lymphocytes (hTILs) samples isolated from tumor biopsies of patients with non-small cell lung cancer (NSCLC) were generously provided by Moffitt Cancer Center. All human samples remained totally de-identified and no Institutional Review Board (IRB) approval was needed.
# as §1
# (§3) Extracellular acidification rate (ECAR) and oxygen consumption rate (OCR) were measured using the Seahorse XF analyzer (Agilent technologies). […] For GST, ECAR and OCR were measured under basal conditions and in response to 10 mM glucose, 1 μM oligomycin and 50 mM 2-DG successively to calculate basal glycolytic rate, glycolytic capacity (in response to oligomycin), and glycolytic reserve (glycolytic capacity-basal rate). […] Results were normalized to total protein quantified using Pierce™ BCA Protein Assay Kit (Thermo Fisher Scientific).
# [3] = tested on: Pmel T cells stimulated with gp100; assay: IFN-γ ELISPOT assay of Pmel T cells; assay type: cell-based, mouse; conditions: activated Pmel T cells, OSS vs. DMSO, FIG. 7C
# Protocol: The number of IFN-γ producing cells was evaluated in an ELISPOT assay. Briefly, mouse TILs were plated at 1×10^5 cells and co-cultured with 1×10^3 irradiated B16F10 tumor cells (50 Gray) in the presence of the indicated concentrations of OSS, in a 96-well nitrocellulose flat-bottomed plate (ELISPOT plate, Millipore) pre-coated with an anti-mouse IFN-γ antibody (AN-18, Mabtech, Inc.) and incubated for 48 hr at 37° C. For Pmel T cells, splenocytes were first stimulated with gp100 (1 μg/ml, Anaspec) for 48 hr in the presence of the indicated concentrations of OSS and then transferred to the ELISPOT plate pre-coated with an anti-mouse IFN-γ antibody (AN-18, Mabtech, Inc.) for an additional 48 hr. For human CD3+ T cells and TILs, cells were first stimulated with plate-coated anti-CD3 for 48 hr in the presence of vehicle or OSS at the indicated concentration and then transferred to the ELISPOT plate pre-coated with an anti-human IFN-γ antibody (1-DIK, Mabtech, Inc.). PMA (10 ng/ml, Sigma-Aldrich) was used as positive assay control. After washing steps and successive biotinylated anti-IFN-γ antibody (R4-6A2, Mabtech, Inc.) and Streptavidin-HRP (BD Bioscience) labeling, spots were detected using AEC Substrate Kit (BD Biosciences) and counted using an AID ELISPOT Reader System (Autoimmun Diagnostika GmbH).
# activated CD3+ T cells = assay: Western blot analysis of activated T cells; assay type: cell-based, mouse
# Protocol: Whole cell lysates were prepared using lysis buffer (Pierce RIPA buffer, Thermo Fisher Scientific) supplemented with Complete™ protease inhibitor cocktail and PhosSTOP phosphatase inhibitor cocktail (Roche Applied Science).
# Cell lysates (20 μg) or IP samples were loaded onto 10% SDS-PAGE and separated by electrophoresis followed by semi-dry transfer into polyvinylidene fluoride membranes (Immun-Blot® PVDF membrane, Bio-Rad) using Trans-Blot Turbo transfer system (Bio-Rad). After transfer, the membranes were blocked at room temperature with Tris-buffered saline (TBS) containing 0.05% Tween-20 (TBST) and 5% (w/v) non-fat dry milk for 1 hour and then incubated overnight at 4° C. with a specific primary antibody (indicated below). The membranes were washed three times with TBST and then incubated for 1 hour with horseradish peroxidase (HRP)-conjugated goat […] IgG H&L (Abcam, #ab97051, 1:3,000) for regular western blotting analysis, or HRP-conjugated mouse anti-rabbit IgG light-chain specific (Cell Signaling, #93702, 1:1,000) for IP samples. After washing 3 times with TBST, bound antibodies were detected by chemiluminescence using the Pierce™ ECL Western Blotting Substrate and the Super Signal West Femto Maximum Sensitivity Substrate kits (Thermo Fisher Scientific). Image acquisition was performed with the Amersham imager 600 system (GE Healthcare Bio-Sciences).
# Immunoblotting was performed using primary antibodies against: Sirt6, H3K9, acetylated-H3K9 and c-Myc (#9402, 1:1,000) from Cell signaling, LDH (#ab52488, 1:5,000), PFKP (#ab204131, 1:2,000), HK1 (#ab150423, 1:1,000), HIF-1α and beta-Actin from Abcam
# B16F10 cells = assay: LDH release cytotoxic assay of Pmel T cells against B16F10 cells; assay type: cell-based, mouse; conditions: Pmel T cells ex vivo, OSS vs. DMSO, FIG. 7D
# Protocol: Evaluation of functional cytotoxic activity was performed using Pierce™ LDH Cytotoxicity Assay Kit (Thermo Fisher Scientific) according to the manufacturer's protocol. B16F10 cells or human NSCLC autologous tumor cells were used as target cells. Mouse CD8+ enriched T cells from gp100-stimulated Pmel splenocytes or human NSCLC TILs were used as effector cells. Target tumor cells were co-cultured with effector cells in 96-well round-bottom microplates at the indicated effector:target ratios with and without Sirt6 inhibitor. After 6 hr, the percentage of specific LDH release was calculated according to the following formula: % cell lysis=(experimental value−effector cells spontaneous release−target cells spontaneous release)×100/(target cells maximum release−target cells spontaneous release), where “experimental” corresponds to the experimental signal value, “effector spontaneous” to spontaneous release of LDH from effector cells alone, “target spontaneous” to spontaneous release of LDH from target cells alone and “maximum release” to the maximum release of LDH from target cells in medium containing 1% Triton X-100.
# [4] = tested on: TILs isolated from B16F10 tumors; assay: IFN-γ ELISPOT assay of B16F10 TILs re-challenged with B16F10 cells; assay type: cell-based, mouse; conditions: B16F10 TILs re-challenged with B16F10 cells ex vivo, FIG. 7G
# Protocol: Lymphocytes from subcutaneous tumors were isolated by dicing the tissues followed by enzymatic digestion in PBS containing collagenase type 4 (2 mg/ml, Worthington Biochemical) and DNase I (0.25 mg/ml, Sigma-Aldrich) for 45 min with occasional shaking at 37° C. Cell suspensions were then twice filtered through 100 μm and 40 μm cell strainers (Thermo Fisher Scientific) to obtain single-cell suspension followed by a PBS wash and red blood cell lysis using RBC Lysis Buffer (Biolegend). TILs were finally isolated by density gradient centrifugation using Percoll (GE Healthcare) and were further purified using […] MicroBeads Kit™ (Miltenyi Biotec) according to the manufacturer's instructions. T cell purity was greater than 90% (data not shown). Fresh TILs were used directly for phenotypic and metabolic analyses or were cultured in complete RPMI medium for functional assays.
# The number of IFN-γ producing cells was evaluated in an ELISPOT assay. […] After washing steps and successive biotinylated anti-IFN-γ antibody (R4-6A2, Mabtech, Inc.) and Streptavidin-HRP (BD Bioscience) labeling, spots were detected using AEC Substrate Kit (BD Biosciences) and counted using an AID ELISPOT Reader System (Autoimmun Diagnostika GmbH).
# [5] = tested on: CD3+ TILs isolated from B16F10 tumor nodules; assay: Seahorse ECAR of TILs isolated from s.c. B16F10 melanoma tumors; assay type: cell-based, mouse; conditions: TILs from s.c. B16F10 tumors in C57BL/6 mice, OSS vs. DMSO, FIG. 6F
# Protocol: Anesthetized mice were injected subcutaneously (s.c.) into the hind limb with 2.5×10^5 B16F10 tumor cells in 200 μl of sterile PBS. Tumors were collected after 2 weeks and TILs were isolated for further analysis.
# Lymphocytes from subcutaneous tumors were isolated by dicing the tissues followed by enzymatic digestion in PBS containing collagenase type 4 (2 mg/ml, Worthington Biochemical) and DNase I (0.25 mg/ml, Sigma-Aldrich) for 45 min with occasional shaking at 37° C. Cell suspensions were then twice filtered through 100 μm and 40 μm cell strainers (Thermo Fisher Scientific) to obtain single-cell suspension followed by a PBS wash and red blood cell lysis using RBC Lysis Buffer (Biolegend). […]
# as §3
# [6] = tested on: stimulated CD8+ T cells from WT vs. Sirt2−/− Pmel mice; assay: IFN-γ ELISPOT assay of stimulated CD8+ T cells from WT vs. Sirt2−/− Pmel mice; assay type: cell-based, mouse; conditions: Sirt2−/− Pmel CD8+ T cells, FIG. 3C
# Protocol: FIG. 3: Sirtuins in the immune system. A, WB of Sirt1-3,5-7 expression in activated CD3+ T cells from WT vs. Sirt2−/− mice. ECAR measured by Seahorse analyzer (B) and IFN-γ ELISPOT assay (C) in stimulated CD8+ T cells from WT vs. Sirt2−/− Pmel mice treated with vehicle (Ctl), or Sirt6 inhibitor (Sirt6i). *P<0.05, **P<0.01, ****P<0.0001.
# as §2, with “C. For Pmel T cells, splenocytes were first stimulated with gp100 (1 μg/ml, Anaspec) for 48 hr in the presence of the indicated concentrations of OSS and then transferred to the ELISPOT plate pre-coated with an anti-mouse IFN-γ antibody (AN-18, Mabtech, Inc.) for an additional 48 hr.” for “C.”
# [7] = activated CD3+ T cells, WB, FIG. 8J
smiles,measurement,setting,value
O=C(Nc1ccc(O)c(C(=O)O)c1)c1cccc(NC(=O)c2ccco2)c1 [OSS_128167],IFN-γ production,[1],increased
same,"aerobic glycolysis (basal glycolysis, glycolytic capacity)",[2],increased
same,IFN-γ release,[3],increases
same,Glut1 protein expression levels,activated CD3+ T cells; [7],upregulation
same,HK1 protein expression levels,activated CD3+ T cells; [7],upregulation
same,LDHA protein expression levels,activated CD3+ T cells; [7],upregulation
same,PFKP protein expression levels,activated CD3+ T cells; [7],upregulation
same,H3K9 acetylation levels,"activated CD3+ T cells; activated T cells, FIG. 8D",increased
same,HIF-1α expression levels,"activated CD3+ T cells; activated T cells, FIG. 8D",no effect
same,c-Myc expression levels,"activated CD3+ T cells; activated T cells, FIG. 8D",no effect
same,cytotoxic activity against B16F10 cell challenge,B16F10 cells,superior cytotoxic activity
same,IFN-γ release,[4],increase
same,glycolytic activity of TILs (ECAR),[5],restored
same,effect on effector function (IFN-γ ELISPOT) with Sirt2 deficiency,[6],potentiated
